Assays:
[1] = system: NR2B-adaptin association; details: 100 mM ethanol, 15 min, L(-tk) cells NR1+NR2B + PSD-95
Description: L(−tk) were cultured on 100 mm plates. When cells reached 75% confluency, they were transfected with 5 μg of PSD95-GFP cDNA using LipofectAMINE PLUS in accordance with the manufacturer's instructions. 24 hrs after transfection, the expression of the NMDAR subunits NR1+NR2A or NR1+NR2B was induced with […] dexamethasone in DMEM containing 10% FBS, and 0.5 mM ketamine as previously described (21). After 3 days of induction, the cross-linking or immunoprecipitation studies were conducted. Homogenates were obtained as described in (17).
The treated slices were homogenized in ice-cold buffer containing 1% deoxycholate, protease and phosphatase inhibitors and (in mM): 250 sucrose, 20 Tris-HCl (pH 7.5), 2 EDTA and 10 EGTA. 500 μg of the protein was diluted with 1× immunoprecipitation buffer (1% Triton X-100 and (in mM): 150 NaCl, 10 Tris HCl (pH 7.4), 1 EDTA, 1 EGTA and 0.2 sodium orthovanadate) and incubated with 5 μg of the appropriate antibody, followed by an overnight incubation at 4° C. with protein G agarose beads. The beads were extensively washed, re-suspended in 2× sample buffer and boiled for 5-10 min. The samples were then subjected to SDS-PAGE followed by Western blotting with the appropriate antibodies.
Proteins were separated by SDS-PAGE and blotted onto a nitrocellulose membrane. […] Results were quantified by NIH Image 1.61.

[2] = system: Ras; test: Ras activity assay (Raf-1-Ras binding domain GST-agarose), hippocampal slices; format: cell-based, mouse; details: 100 mM ethanol, 15 min, hippocampal slices
Description: The treated hippocampal homogenates (250 μg) were incubated with […] of Raf-1-Ras binding domain GST-agarose for 45 min at 4° C. while rotating, as per manufacturer's instructions. […] Results were quantified by NIH Image 1.61.

In the case of `CCO` [ethanol], the NR2B-adaptin association [1] is reported as “no change” and the “increase of Ras-GTP levels over the control” value [2] is reported as “at least 2 fold”.
